Laboratory results taken from paper PMC12728205, “The solute-binding proteins DppA1–5 of Pseudomonas aeruginosa have distinct substrate profiles” (Scientific Reports, 2025).
Peptide text beside a SMILES is read from it.

Molecular target: T1, DppA1 (Pseudomonas aeruginosa, UniProt A0A0H2ZGV2)
T1 construct: C-terminal TwinStrepTag, codon-optimized gene, periplasmic expression in E. coli BL21 (pET22b), StrepTrap purified
Assay: differential scanning fluorimetry (SYPRO Orange)
Format: binding
Conditions: 10 µM protein, 250 µM peptide, PBS

T1 sequence (A0A0H2ZGV2 30-537): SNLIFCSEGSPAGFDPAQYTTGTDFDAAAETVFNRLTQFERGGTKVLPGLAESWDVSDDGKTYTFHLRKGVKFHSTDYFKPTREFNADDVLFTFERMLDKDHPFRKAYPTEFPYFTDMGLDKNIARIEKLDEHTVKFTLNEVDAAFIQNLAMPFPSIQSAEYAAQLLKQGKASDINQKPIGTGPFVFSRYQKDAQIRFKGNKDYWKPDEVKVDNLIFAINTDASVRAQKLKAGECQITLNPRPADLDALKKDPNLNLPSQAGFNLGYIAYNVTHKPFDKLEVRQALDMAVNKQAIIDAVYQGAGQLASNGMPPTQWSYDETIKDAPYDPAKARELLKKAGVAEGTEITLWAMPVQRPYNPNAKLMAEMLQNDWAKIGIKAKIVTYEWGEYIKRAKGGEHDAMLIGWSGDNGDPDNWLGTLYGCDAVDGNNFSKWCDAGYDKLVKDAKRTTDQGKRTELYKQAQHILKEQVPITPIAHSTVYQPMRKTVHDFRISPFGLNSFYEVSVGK

## C[C@H](N)C(=O)NCC(=O)O [Ala-Gly] (H-Ala-Gly-OH)
  ΔTm: 8.6 °C
